Test results taken from ChEMBL document CHEMBL2417434, “The first synthesis of natural disulfide bruguiesulfurol and biological evaluation of its derivatives as a novel scaffold for PTP1B inhibitors” (Bioorg Med Chem Lett, 2013).

Tests used:
[1] = molecular target: T1, Tyrosine-protein phosphatase non-receptor type 1 (Homo sapiens, UniProt P18031); test: Inhibition of PTP1B (unknown origin)
T1 sequence (P18031 whole entry): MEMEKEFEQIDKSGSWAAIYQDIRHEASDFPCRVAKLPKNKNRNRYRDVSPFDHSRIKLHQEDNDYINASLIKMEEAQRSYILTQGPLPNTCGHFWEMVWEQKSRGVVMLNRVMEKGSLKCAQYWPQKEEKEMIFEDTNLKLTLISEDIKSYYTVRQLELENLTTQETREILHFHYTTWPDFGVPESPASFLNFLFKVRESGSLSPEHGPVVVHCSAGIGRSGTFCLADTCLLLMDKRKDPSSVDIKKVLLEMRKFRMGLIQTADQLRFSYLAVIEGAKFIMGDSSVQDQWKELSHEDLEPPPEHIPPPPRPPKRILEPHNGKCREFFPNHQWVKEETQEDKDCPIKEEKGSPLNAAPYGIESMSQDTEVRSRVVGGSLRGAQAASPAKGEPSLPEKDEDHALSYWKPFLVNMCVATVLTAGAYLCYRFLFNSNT

[2] = molecular target: Receptor-type tyrosine-protein phosphatase F (Homo sapiens, UniProt P10586); test: Inhibition of LAR (unknown origin)
[3] = molecular target: Tyrosine-protein phosphatase non-receptor type 6 (Homo sapiens, UniProt P29350); test: Inhibition of SHP1 (unknown origin)
[4] = molecular target: T2, Tyrosine-protein phosphatase non-receptor type 11 (Homo sapiens, UniProt Q06124); test: Inhibition of SHP2 (unknown origin)
T2 sequence (Q06124 whole entry): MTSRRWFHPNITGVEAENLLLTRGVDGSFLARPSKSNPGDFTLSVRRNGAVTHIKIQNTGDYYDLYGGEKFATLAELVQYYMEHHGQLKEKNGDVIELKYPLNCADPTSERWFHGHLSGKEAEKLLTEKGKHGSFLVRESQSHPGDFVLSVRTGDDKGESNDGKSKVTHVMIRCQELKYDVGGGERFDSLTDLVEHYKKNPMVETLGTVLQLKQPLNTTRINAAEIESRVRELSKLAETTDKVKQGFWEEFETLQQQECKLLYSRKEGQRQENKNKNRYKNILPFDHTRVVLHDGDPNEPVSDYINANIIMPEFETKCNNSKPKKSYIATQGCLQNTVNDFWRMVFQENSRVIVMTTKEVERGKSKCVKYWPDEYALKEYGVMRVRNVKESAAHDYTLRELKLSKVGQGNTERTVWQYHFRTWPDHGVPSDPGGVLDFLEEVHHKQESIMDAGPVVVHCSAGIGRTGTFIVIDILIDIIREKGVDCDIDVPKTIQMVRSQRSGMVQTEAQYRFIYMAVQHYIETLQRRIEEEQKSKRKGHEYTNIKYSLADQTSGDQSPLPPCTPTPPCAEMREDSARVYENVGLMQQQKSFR

[5] = molecular target: T3, Tyrosine-protein phosphatase non-receptor type 2 (Homo sapiens, UniProt P17706); test: Inhibition of TCPTP (unknown origin)
T3 sequence (P17706 whole entry): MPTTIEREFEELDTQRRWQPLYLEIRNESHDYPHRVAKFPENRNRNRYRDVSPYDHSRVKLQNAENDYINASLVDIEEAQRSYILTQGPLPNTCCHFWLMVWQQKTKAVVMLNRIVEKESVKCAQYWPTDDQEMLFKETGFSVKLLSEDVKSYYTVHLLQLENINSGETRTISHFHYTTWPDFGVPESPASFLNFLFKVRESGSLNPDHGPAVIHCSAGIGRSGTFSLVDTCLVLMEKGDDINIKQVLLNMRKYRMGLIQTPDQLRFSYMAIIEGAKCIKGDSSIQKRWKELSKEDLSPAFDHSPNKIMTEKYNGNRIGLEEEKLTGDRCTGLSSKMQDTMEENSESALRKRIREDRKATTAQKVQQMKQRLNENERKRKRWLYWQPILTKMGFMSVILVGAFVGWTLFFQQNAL

Receptor-type tyrosine-protein phosphatase F, sequence (P10586 whole entry): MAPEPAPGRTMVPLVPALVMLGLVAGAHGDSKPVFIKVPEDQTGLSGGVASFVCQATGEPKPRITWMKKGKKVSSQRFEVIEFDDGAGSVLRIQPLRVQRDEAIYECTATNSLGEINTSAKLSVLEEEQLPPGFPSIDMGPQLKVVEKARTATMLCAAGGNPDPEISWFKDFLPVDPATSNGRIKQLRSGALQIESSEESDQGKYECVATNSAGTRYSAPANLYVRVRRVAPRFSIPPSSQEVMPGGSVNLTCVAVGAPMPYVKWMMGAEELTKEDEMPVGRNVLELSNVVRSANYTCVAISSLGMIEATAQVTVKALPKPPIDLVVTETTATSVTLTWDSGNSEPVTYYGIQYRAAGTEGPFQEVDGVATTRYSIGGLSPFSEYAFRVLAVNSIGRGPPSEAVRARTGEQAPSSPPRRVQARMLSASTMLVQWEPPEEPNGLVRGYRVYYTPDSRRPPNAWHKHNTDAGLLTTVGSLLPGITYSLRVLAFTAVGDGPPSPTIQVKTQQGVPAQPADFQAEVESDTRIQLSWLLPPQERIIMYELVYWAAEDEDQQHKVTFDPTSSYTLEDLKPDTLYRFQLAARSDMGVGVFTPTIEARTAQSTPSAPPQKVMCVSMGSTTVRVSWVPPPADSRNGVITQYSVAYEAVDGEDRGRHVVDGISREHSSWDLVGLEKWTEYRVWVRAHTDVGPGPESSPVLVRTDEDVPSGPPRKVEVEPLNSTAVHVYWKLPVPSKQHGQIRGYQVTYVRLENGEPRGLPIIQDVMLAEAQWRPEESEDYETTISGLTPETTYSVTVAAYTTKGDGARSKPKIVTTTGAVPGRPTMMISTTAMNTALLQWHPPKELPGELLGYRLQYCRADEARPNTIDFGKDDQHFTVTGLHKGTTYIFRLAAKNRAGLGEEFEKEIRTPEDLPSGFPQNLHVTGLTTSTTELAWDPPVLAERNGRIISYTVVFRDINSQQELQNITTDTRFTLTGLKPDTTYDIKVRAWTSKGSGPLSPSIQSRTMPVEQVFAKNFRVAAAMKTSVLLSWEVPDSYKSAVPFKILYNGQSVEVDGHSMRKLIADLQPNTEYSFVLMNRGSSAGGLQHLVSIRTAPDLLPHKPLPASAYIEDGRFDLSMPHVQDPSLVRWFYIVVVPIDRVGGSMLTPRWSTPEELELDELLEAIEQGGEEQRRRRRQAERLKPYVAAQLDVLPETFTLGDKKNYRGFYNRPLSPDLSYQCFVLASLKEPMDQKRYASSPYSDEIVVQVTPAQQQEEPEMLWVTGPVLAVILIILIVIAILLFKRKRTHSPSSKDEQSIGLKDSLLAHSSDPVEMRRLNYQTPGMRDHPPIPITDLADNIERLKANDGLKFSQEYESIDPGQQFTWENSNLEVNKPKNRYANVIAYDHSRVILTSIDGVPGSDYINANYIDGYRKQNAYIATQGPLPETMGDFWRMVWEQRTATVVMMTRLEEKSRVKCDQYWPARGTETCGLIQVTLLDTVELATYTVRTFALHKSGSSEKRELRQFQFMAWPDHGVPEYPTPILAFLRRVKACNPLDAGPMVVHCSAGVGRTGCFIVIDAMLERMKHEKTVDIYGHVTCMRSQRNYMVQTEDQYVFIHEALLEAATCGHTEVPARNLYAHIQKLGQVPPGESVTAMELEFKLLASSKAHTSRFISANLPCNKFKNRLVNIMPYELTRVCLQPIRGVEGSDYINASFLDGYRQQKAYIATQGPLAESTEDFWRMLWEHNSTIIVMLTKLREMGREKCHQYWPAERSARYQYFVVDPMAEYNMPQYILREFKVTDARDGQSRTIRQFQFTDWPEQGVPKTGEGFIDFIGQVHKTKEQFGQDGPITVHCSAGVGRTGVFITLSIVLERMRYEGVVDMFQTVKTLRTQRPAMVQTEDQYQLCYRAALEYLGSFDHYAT
Tyrosine-protein phosphatase non-receptor type 6, sequence (P29350 whole entry): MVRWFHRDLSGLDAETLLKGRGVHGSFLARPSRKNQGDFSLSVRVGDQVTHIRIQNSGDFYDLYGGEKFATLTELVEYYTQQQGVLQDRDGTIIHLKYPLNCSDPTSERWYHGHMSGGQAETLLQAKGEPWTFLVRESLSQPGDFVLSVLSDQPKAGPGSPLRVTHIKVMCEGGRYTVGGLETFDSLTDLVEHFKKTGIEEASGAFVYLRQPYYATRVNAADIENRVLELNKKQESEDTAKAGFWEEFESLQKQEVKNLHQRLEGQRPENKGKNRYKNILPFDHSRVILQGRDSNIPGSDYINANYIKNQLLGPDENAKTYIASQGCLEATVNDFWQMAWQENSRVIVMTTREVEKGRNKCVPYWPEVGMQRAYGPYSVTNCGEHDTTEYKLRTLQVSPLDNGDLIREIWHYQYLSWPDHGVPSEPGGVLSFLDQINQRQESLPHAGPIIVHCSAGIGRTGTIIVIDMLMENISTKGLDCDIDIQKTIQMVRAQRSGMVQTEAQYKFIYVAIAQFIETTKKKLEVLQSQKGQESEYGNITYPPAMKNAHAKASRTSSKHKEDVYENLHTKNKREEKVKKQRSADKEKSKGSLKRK

IC50 [1]	IC50 [2]	IC50 ([5]; read-out: IC50)	IC50 ([1]; read-out: IC50)	IC50 [3]	IC50 [4]	Structure (SMILES)	other results
Not Active						O=C(OC1CSSC1)c1ccc[nH]1	
Not Active						O=C(OC1CSSC1)c1ccccc1	
Not Active						COc1ccc(C(=O)OC2CSSC2)c(OC)c1	
Not Active						O=C(OC1CSSC1)c1ccc(F)cc1	
	Not Active	40.7 µM	24.9 µM			NS(=O)(=O)c1ccc(C(=O)OC2CSSC2)cc1	IC50 ([3]; read-out: IC50): 14 µM; IC50 ([4]; read-out: IC50): 13.4 µM
	Not Active		28 µM	Not Active	Not Active	O=C(OC1CS[S+]([O-])C1)c1cccc(Br)c1 (configuration not stated)	IC50 [5]: Not Active
Not Active						O=C(OC1CSS(=O)(=O)C1)c1ccc(F)cc1 (configuration not stated)	
Not Active						O=C(OC1CSSC1)c1ccc(Cl)cc1	
Not Active						O=C(OC1CSS(=O)(=O)C1)c1ccc(Br)cc1 (configuration not stated)	
	Not Active	75.4 µM	35.2 µM			O=C(OC1CSSC1)c1ccco1	IC50 ([3]; read-out: IC50): 15.8 µM; IC50 ([4]; read-out: IC50): 22.3 µM
		42.1 µM	48.2 µM	Not Active	Not Active	O=C(OC1CSSC1)c1ccccc1I	IC50 ([2]; read-out: IC50): 20.4 µM
	Not Active	11.1 µM	4.54 µM	Not Active	Not Active	O=C(OC1CS[S+]([O-])C1)c1cc(Br)ccc1Br (configuration not stated)	
Not Active						O=C(OC1CSS(=O)(=O)C1)c1ccccc1I (configuration not stated)	
		34 µM	11 µM	Not Active	Not Active	O=C(OC1CSSC1)c1ccc(Br)cc1	IC50 ([2]; read-out: IC50): 34.6 µM
	Not Active		29 µM	Not Active	Not Active	O=C(OC1CSS(=O)(=O)C1)c1cccc(Br)c1 (configuration not stated)	IC50 [5]: Not Active
	Not Active	35.8 µM	24.1 µM	Not Active	Not Active	O=C(OC1CSSC1)c1cc2ccccc2[nH]1	
	Not Active	36.8 µM	29.7 µM	Not Active	Not Active	O=C(OC1CS[S+]([O-])C1)c1ccccc1I (configuration not stated)	

IC50 [1]	IC50 [2]	IC50 ([5]; read-out: IC50)	IC50 ([1]; read-out: IC50)	IC50 [3]	IC50 [4]	Structure (SMILES)	other results
	Not Active		45 µM	Not Active	Not Active	O=C(Cc1ccc(Br)cc1)OC1CS[S+]([O-])C1 (configuration not stated)	IC50 [5]: Not Active
Not Active						O=C(Cc1ccc(Br)cc1)OC1CSS(=O)(=O)C1 (configuration not stated)	
Not Active						O=C(OC1CSSC1)c1cccc(Br)c1	
Not Active						O=C(OC1CSS(=O)(=O)C1)c1ccccc1Br (configuration not stated)	
Not Active						O=C(CCc1ccc(Br)cc1)OC1CSSC1	
	Not Active	20.4 µM	25.6 µM		Not Active	O=C(OC1CSSC1)c1cc(Br)ccc1Br	IC50 ([3]; read-out: IC50): 10.9 µM
Not Active						O=C(OC1CS[S+]([O-])C1)c1ccc(Br)cc1 (configuration not stated)	
			17.5 µM			O=S1(=O)C[C@H](O)CS1 [BRUGUIESULFUROL]	
Not Active						O=C(OC1CSSC1)c1ccccc1Br	
Not Active						O=C(OC1CS[S+]([O-])C1)c1ccccc1Br (configuration not stated)	
Not Active						O=C(OC1CSS(=O)(=O)C1)c1ccc(I)cc1 (configuration not stated)	
	Not Active		78.2 µM			O=C(OC1CSSC1)c1ccoc1	IC50 ([3]; read-out: IC50): 17.9 µM; IC50 ([4]; read-out: IC50): 21.4 µM; IC50 [5]: Not Active
Not Active						O=C(Cc1ccc(Br)cc1)OC1CSSC1	
Not Active						O=C(OC1CSS(=O)(=O)C1)c1cc(Br)ccc1Br (configuration not stated)	
Not Active						O=C(OC1CSS(=O)(=O)C1)c1cc2ccccc2[nH]1 (configuration not stated)	
Not Active						O=C(OC1CS[S+]([O-])C1)c1ccc(F)cc1 (configuration not stated)	
Not Active						CC(=O)OC1CSSC1	

Structure (SMILES)	IC50 [1]	IC50 [2]	IC50 ([5]; read-out: IC50)	IC50 ([1]; read-out: IC50)	IC50 [3]	IC50 [4]	other results
O=C(OC1CSSC1)c1ccc(I)cc1		Not Active	34.1 µM	33.4 µM	Not Active	Not Active	
O=C(OC1CS[S+]([O-])C1)c1cc2ccccc2[nH]1 (configuration not stated)		Not Active	52.6 µM	31.4 µM	Not Active	Not Active	
O=C(OC1CSSC1)c1cc([N+](=O)[O-])cc([N+](=O)[O-])c1		Not Active	27.3 µM	14.8 µM			IC50 ([3]; read-out: IC50): 24.4 µM; IC50 ([4]; read-out: IC50): 13.8 µM
O=C(OC1CS[S+]([O-])C1)c1ccc(I)cc1 (configuration not stated)		Not Active	33 µM	22.4 µM	Not Active	Not Active	
O=C(OC1CSSC1)c1ccc([N+](=O)[O-])cc1		Not Active	37.4 µM	22.6 µM	Not Active	Not Active	
